Reference: the supplement of paper PMC11208160

Assay: recombinant UMI read abundance after kanamycin selection (control-corrected) (log10(CPM+1)); higher = more efficient recombination; extreme values may be limits of the assay; sequences stand for … in AGTGCAGAGAAAATCGGCCAGTTTTCTCTGCCTGCAGTCCGCATGCCGTGGGACCCCTTGGGTTCTAACCTGTTGCCTAGATTTATGCAGCGGACTGCCTTTCTCCCAAAGTGATAAACCGG…AGGTTGGTTTCACT; site = the 11-nt donor
Procedure, shortened: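 Sequenced counts of recombinant UMIs were turned into CPM, averaged across replicates and scaled with control-derived factors. The reported figure is log10(CPM+1). Those UMIs, each 12 nt long, tagged donor and donor-binding-loop pairs on a plasmid with a promoterless kanamycin gene, screened as a pool in Escherichia coli with IPTG (0.07 mM) plus kanamycin or without selection.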
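Further: IS621 bridge recombinase in Escherichia coli cells against a fixed T5 target plasmid.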

Row | Sequence | recombinant UMI read abundance (log10)
1 | CACGCCTCATGGACCGGTTTTCCCGGTAATCCGTATTTGCC (site CACGCCTCTGG) | 3.32
2 | CACGCCTCATGGACCGGTTTTCCCGGTAATCCGTATTTGCC (site CACTCCTCTGG) | 2.11
3 | CACGCGACATGGACCGGTTTTCCCGGTAATCCGTATTTGTA (site CACGCGACTTA) | 2.4
4 | CACGGCCCATGGACCGGTTTTCCCGGTAATCCGTATTTGAT (site CACGGCCCTAA) | 0.0181
5 | CACGGCCCATGGACCGGTTTTCCCGGTAATCCGTATTTGAT (site CACGGCCCTAC) | 0.0396
6 | CACGGCCCATGGACCGGTTTTCCCGGTAATCCGTATTTGAT (site CACGGCCCTAG) | 0
7 | CACGGCCCATGGACCGGTTTTCCCGGTAATCCGTATTTGAT (site CACGGCCCTAT) | 0.255
8 | CACGGCCCATGGACCGGTTTTCCCGGTAATCCGTATTTGGT (site CACGGCCCTAA) | 0.0236
9 | CACGGCCCATGGACCGGTTTTCCCGGTAATCCGTATTTGGT (site CACGGCCCTAC) | 0.00703
10 | CACGGCCCATGGACCGGTTTTCCCGGTAATCCGTATTTGGT (site CACGGCCCTAG) | 0
11 | CACGGCCCATGGACCGGTTTTCCCGGTAATCCGTATTTGGT (site CACGGCCCTAT) | 0.456
12 | CACGGCCCATGGACCGGTTTTCCCGGTAATCCGTATTTGTA (site CACGGCCCTAA) | 0.00609
13 | CACGGCCCATGGACCGGTTTTCCCGGTAATCCGTATTTGTA (site CACGGCCCTCA) | 0.0202
14 | CACGGCCCATGGACCGGTTTTCCCGGTAATCCGTATTTGTA (site CACGGCCCTGA) | 1.81
15 | CACGGCCCATGGACCGGTTTTCCCGGTAATCCGTATTTGTA (site CACGGCCCTTA) | 0.29
16 | CACGGGCCATGGACCGGTTTTCCCGGTAATCCGTATTTGTT (site CACGGACCTAA) | 0
17 | CACGGGCCATGGACCGGTTTTCCCGGTAATCCGTATTTGTT (site CACGGCCCTAA) | 0.234
18 | CACGGGCCATGGACCGGTTTTCCCGGTAATCCGTATTTGTT (site CACGGGCCTAA) | 0.574
19 | CACGGGCCATGGACCGGTTTTCCCGGTAATCCGTATTTGTT (site CACGGTCCTAA) | 0.00819
20 | CACGGGTCATGGACCGGTTTTCCCGGTAATCCGTATTTGCT (site CACGGGTCTAG) | 2.17
21 | CACGGTCCATGGACCGGTTTTCCCGGTAATCCGTATTTGAT (site CACGGTCCTAT) | 0.938
22 | CACGGTTCATGGACCGGTTTTCCCGGTAATCCGTATTTGGG (site CACGGTTCTCC) | 1.03
23 | CACGTACCATGGACCGGTTTTCCCGGTAATCCGTATTTGCA (site CACGTACCTTG) | 0
24 | CACTACTCATGGACCGGTTTTCCCGGTAATCCGTATTTGTT (site CACTACTCTAA) | 2.71
25 | CACTAGGCATGGACCGGTTTTCCCGGTAATCCGTATTTGTA (site CACTAGGCTTA) | 1.42

Row | Sequence | recombinant UMI read abundance (log10)
26 | CACTATGCATGGACCGGTTTTCCCGGTAATCCGTATTTGAT (site CACTATGCTAT) | 1.93
27 | CACTCAGCATGGACCGGTTTTCCCGGTAATCCGTATTTGCC (site CACTCAGCTGG) | 2.5
28 | CACTCCACATGGACCGGTTTTCCCGGTAATCCGTATTTGCG (site CACTCCACTCG) | 1.09
29 | CACTCGGCATGGACCGGTTTTCCCGGTAATCCGTATTTGGA (site CACTAGGCTTC) | 0.232
30 | CACTCGGCATGGACCGGTTTTCCCGGTAATCCGTATTTGGA (site CACTCGGCTTC) | 1.09
31 | CACTCGGCATGGACCGGTTTTCCCGGTAATCCGTATTTGGA (site CACTGGGCTTC) | 0.201
32 | CACTCGGCATGGACCGGTTTTCCCGGTAATCCGTATTTGGA (site CACTTGGCTTC) | 0.0193
33 | CACTCTTCATGGACCGGTTTTCCCGGTAATCCGTATTTGCC (site CACTCATCTGG) | 1.6
34 | CACTCTTCATGGACCGGTTTTCCCGGTAATCCGTATTTGCC (site CACTCCTCTGG) | 2.13
35 | CACTCTTCATGGACCGGTTTTCCCGGTAATCCGTATTTGCC (site CACTCGTCTGG) | 0
36 | CACTCTTCATGGACCGGTTTTCCCGGTAATCCGTATTTGCC (site CACTCTTCTGG) | 2.07
37 | CACTGTACATGGACCGGTTTTCCCGGTAATCCGTATTTGCG (site CACTGTACTCG) | 1.83
38 | CACTTAGCATGGACCGGTTTTCCCGGTAATCCGTATTTGGA (site CACTTAGCTTC) | 1.16
39 | CACTTAGCATGGACCGGTTTTCCCGGTAATCCGTATTTGGA (site CACTTCGCTTC) | 0.00475
40 | CACTTAGCATGGACCGGTTTTCCCGGTAATCCGTATTTGGA (site CACTTGGCTTC) | 0.0129
41 | CACTTAGCATGGACCGGTTTTCCCGGTAATCCGTATTTGGA (site CACTTTGCTTC) | 0
42 | CACTTGCCATGGACCGGTTTTCCCGGTAATCCGTATTTGGA (site CACTTGACTTC) | 0.0268
43 | CACTTGCCATGGACCGGTTTTCCCGGTAATCCGTATTTGGA (site CACTTGCCTTC) | 0.021
44 | CACTTGCCATGGACCGGTTTTCCCGGTAATCCGTATTTGGA (site CACTTGGCTTC) | 0.0247
45 | CACTTGCCATGGACCGGTTTTCCCGGTAATCCGTATTTGGA (site CACTTGTCTTC) | 0.137
46 | CACTTGGCATGGACCGGTTTTCCCGGTAATCCGTATTTGGA (site AACTTGGCTTC) | 0.00381
47 | CACTTGGCATGGACCGGTTTTCCCGGTAATCCGTATTTGGA (site CAATTGGCTTC) | 0.432
48 | CACTTGGCATGGACCGGTTTTCCCGGTAATCCGTATTTGGA (site CACATGGCTTC) | 0.0226
49 | CACTTGGCATGGACCGGTTTTCCCGGTAATCCGTATTTGGA (site CACCTGGCTTC) | 0.612
50 | CACTTGGCATGGACCGGTTTTCCCGGTAATCCGTATTTGGA (site CACGTGGCTTC) | 0.024

Row | Sequence | recombinant UMI read abundance (log10)
51 | CACTTGGCATGGACCGGTTTTCCCGGTAATCCGTATTTGGA (site CACTAGGCTTC) | 0.104
52 | CACTTGGCATGGACCGGTTTTCCCGGTAATCCGTATTTGGA (site CACTCGGCTTC) | 0.0123
53 | CACTTGGCATGGACCGGTTTTCCCGGTAATCCGTATTTGGA (site CACTGGGCTTC) | 0.0362
54 | CACTTGGCATGGACCGGTTTTCCCGGTAATCCGTATTTGGA (site CACTTAGCTTC) | 1.14
55 | CACTTGGCATGGACCGGTTTTCCCGGTAATCCGTATTTGGA (site CACTTCGCTTC) | 0.0367
56 | CACTTGGCATGGACCGGTTTTCCCGGTAATCCGTATTTGGA (site CACTTGACTTC) | 0.231
57 | CACTTGGCATGGACCGGTTTTCCCGGTAATCCGTATTTGGA (site CACTTGCCTTC) | 0.407
58 | CACTTGGCATGGACCGGTTTTCCCGGTAATCCGTATTTGGA (site CACTTGGCTAC) | 0.013
59 | CACTTGGCATGGACCGGTTTTCCCGGTAATCCGTATTTGGA (site CACTTGGCTCC) | 0.381
60 | CACTTGGCATGGACCGGTTTTCCCGGTAATCCGTATTTGGA (site CACTTGGCTGC) | 0.96
61 | CACTTGGCATGGACCGGTTTTCCCGGTAATCCGTATTTGGA (site CACTTGGCTTA) | 1.12
62 | CACTTGGCATGGACCGGTTTTCCCGGTAATCCGTATTTGGA (site CACTTGGCTTC) | 0.91
63 | CACTTGGCATGGACCGGTTTTCCCGGTAATCCGTATTTGGA (site CACTTGGCTTG) | 0.926
64 | CACTTGGCATGGACCGGTTTTCCCGGTAATCCGTATTTGGA (site CACTTGGCTTT) | 1.77
65 | CACTTGGCATGGACCGGTTTTCCCGGTAATCCGTATTTGGA (site CACTTGTCTTC) | 0.78
66 | CACTTGGCATGGACCGGTTTTCCCGGTAATCCGTATTTGGA (site CACTTTGCTTC) | 0.00347
67 | CACTTGGCATGGACCGGTTTTCCCGGTAATCCGTATTTGGA (site CAGTTGGCTTC) | 0.28
68 | CACTTGGCATGGACCGGTTTTCCCGGTAATCCGTATTTGGA (site CATTTGGCTTC) | 0.342
69 | CACTTGGCATGGACCGGTTTTCCCGGTAATCCGTATTTGGA (site CCCTTGGCTTC) | 0.304
70 | CACTTGGCATGGACCGGTTTTCCCGGTAATCCGTATTTGGA (site CGCTTGGCTTC) | 0.439
71 | CACTTGGCATGGACCGGTTTTCCCGGTAATCCGTATTTGGA (site CTCTTGGCTTC) | 0.0309
72 | CACTTGGCATGGACCGGTTTTCCCGGTAATCCGTATTTGGA (site GACTTGGCTTC) | 0.112
73 | CACTTGGCATGGACCGGTTTTCCCGGTAATCCGTATTTGGA (site TACTTGGCTTC) | 0.275
74 | CACTTGGCATGGACCGGTTTTCCCGGTAATCCGTATTTGGC (site CACTTGGCTAC) | 0.012
75 | CACTTGGCATGGACCGGTTTTCCCGGTAATCCGTATTTGGC (site CACTTGGCTCC) | 0.0109
